Laboratory results: patent US20070088414A1, “Particulate formulations for intradermal delivery of biologically active agents” (priority 2005, published 2007)

Legend:
[1] = Payload determination, low molecular weight substance (SRB); format: physicochemical; conditions: SRB dye encapsulated in liposomes, released with 5% Triton X-100, read at 565 nm
Method: To determine the phospholipid concentration of liposomes, 10 μl of each liposome solution was placed in a 16×100 mm glass tube along with 0.4 ml of 10 N sulfuric acid. A set of phosphate standards was prepared from a 0.645 mM stock (Sigma P3869) which was also assayed in glass tubes alongside the liposome samples. Samples, standards and blank tubes were run in duplicate. All tubes were placed in a heating block and digested for 30 minutes at 180° C. Tubes were then removed from the heating block and cooled for 5 minutes before adding 100 μl of 9% hydrogen peroxide. All tubes were then again heated for 30 minutes at 180° C. […] All standards, samples and blanks were read at 820 nm on a spectrophotometer. Using the known standard values, a curve was generated from which phosphate concentration values can be calculated for each of the liposome samples. Phosphate concentration values are expressed as μmoles Pi/mL. […]
Sulfa rhodamine-B sodium salt (“SRB”) was used to determine payload capacity for a low molecular weight substance. […] All samples and standards were then read at 565 nm on a spectrophotometer. SRB dye payload molar concentrations were then calculated from the known standard curve. Using this procedure, the payload for SRB was determined to be about 10.956 nmoles per 50 nmoles of phosphate. […]

[2] = Lymph node penetration assay; conditions: Intradermal injection, liposomes 30 minutes after avidin, nodes harvested 24 hours, sodium salt
Method: Avidin was purchased from Sigma, with the concentration at 10 mg/ml. Avidin was hydrated with injectable saline. A 50 μl aliquot, at a dose of 250 μg, was delivered as described.
SRB was purchased from Sigma (Cat.# S9012). SRB was selected for its high solubility, and due to the fact that it is readily visible to the naked eye and has fluorescent properties.
An LUV process was used to make the SRB-liposomes. Two basic formulations were developed—hi and low PE-biotin content. […] The liposome formulation contained the following: DSPC (94.0 mg; 119.0 μmoles); DSPG (10.3 mg; 13.2 μmoles); Chol (50.9 mg; 132.0 μmoles); and Diol Biotin (2.6 mg; 2.64 μmoles). The mixture was brought to about 20 ml with chloroform and methanol at a 10:1 ratio. Organic solvent was removed at 45° C. A thin film on a rotovap flask was hydrated in 18 ml of 0.1M SRB prepared in buffer (1 mM EDTA, 0.2% NaN3, pH=8.0). The lipid dye suspension was then extruded through a series of nucleopore membranes (5.0. 1.0, 0.8, 0.6, 0.4, 0.2, 0.1, 0.05 micron). Approximately 5 ml was saved after the 0.2, 0.1 and 0.05 micron membranes. Each of the 5 ml preps was centrifuged, and pellets washed with osmotically adjusted (physiological 310 mOSM) buffer. After the free SRB was washed away, the final liposome pellets were resuspended in the same buffer to the final volume of 1 ml. […]

[3] = intravenous, 200 uL single tail vein injection
Method: IV delivery of free and particulate ICG was administered in a 200 uL volume in a single tail vein injection.

SMILES	payload for SRB [1]	Visible Aggregation/Accumulation in Axillary Node ([2]; listed as Free SRB liposomes)	Visible Aggregation/Accumulation in Axillary Node [2]	accumulation across the peritoneal cavity [3]
CCN(CC)c1ccc2c(-c3ccc(S(=O)(=O)[O-])cc3S(=O)(=O)[O-])c3ccc(=[N+](CC)CC)cc-3oc2c1.[Na+] [free SRB, Sulfa rhodamine-B sodium salt]	about 10.956 nmoles per 50 nmoles of phosphate	no SRB color retention in the node	No	–
CC1(C)C(/C=C/C=C/C=C/C=C2\N(CCCCS(=O)(=O)O)c3ccc4ccccc4c3C2(C)C)=[N+](CCCCS(=O)(=O)[O-])c2ccc3ccccc3c21 [free cardiogreen, Indocyanine Green]	–	–	–	manifested accumulation across the peritoneal cavity
